According to ChEMBL document CHEMBL1127857, “Antitumor agents. 155. Synthesis and biological evaluation of 3',6,7-substituted 2-phenyl-4-quinolones as antimicrotubule agents” (J Med Chem, 1994):

Key:
[1] = tested on: HCT-116; assay: Tested for in vitro tumor cell growth inhibition of colon cancer cell line HCT116; type: functional; conditions: Homo sapiens
[2] = tested on: K562; assay: Tested for in vitro tumor cell growth inhibition of leukemia cell line K-562; type: functional; conditions: Homo sapiens
[3] = tested on: NCI-H226; assay: Tested for in vitro tumor cell growth inhibition of non-small cell lung cancer cell line NCI-H226; type: functional; conditions: Homo sapiens
[4] = tested on: OVCAR-3; assay: Tested for in vitro tumor cell growth inhibition of ovarian cancer cell line OVCAR-3; type: functional; conditions: Homo sapiens
[5] = tested on: SF-268; assay: Tested for in vitro tumor cell growth inhibition of CNS tumor cell line SF-268; type: functional; conditions: Homo sapiens
[6] = tested on: SF-295; assay: Tested for in vitro tumor cell growth inhibition of CNS tumor cell line SF-295; type: functional; conditions: Homo sapiens
[7] = tested on: SK-MEL-5; assay: Tested for in vitro tumor cell growth inhibition of melanoma cell line SK-Mel-5; type: functional; conditions: Homo sapiens
[8] = target: Tubulin (Bos taurus) (UniProt Q6B856+Q862L2+Q862F3); assay: Inhibition of colchicine binding to tubulin was evaluated only when polymerization IC50 <=1.0 uM; type: protein assay
[9] = target: Tubulin (Bos taurus, UniProt Q6B856+Q862L2+Q862F3); assay: Inhibition of bovine tubulin polymerization; type: functional
[10] = tested on: DU-145; assay: Tested for in vitro tumor cell growth inhibition of prostate cancer cell line DU-145; type: functional; conditions: Homo sapiens
[11] = tested on: KM-20L2; assay: Tested for in vitro tumor cell growth inhibition of colon cancer cell line […]; type: functional; conditions: Homo sapiens
[12] = tested on: RXF 393; assay: Tested for in vitro tumor cell growth inhibition of renal cancer cell line RXF-393; type: functional; conditions: Homo sapiens
[13] = tested on: MDA-N; assay: Tested for in vitro tumor cell growth inhibition of breast cancer cell line MDA-N; type: functional; conditions: Homo sapiens
[14] = tested on: OVCAR-4; assay: Tested for in vitro tumor cell growth inhibition of ovarian cancer cell line OVCAR-4; type: functional; conditions: Homo sapiens

## Oc1cc(-c2cccc(F)c2)nc2cc3c(cc12)OCO3
[1]
  GI50: 219 nM
[2]
  GI50: 339 nM
[3]
  GI50: 955 nM
[4]
  GI50: 288 nM
[5]
  GI50: 661 nM
[6]
  GI50: 141 nM
[7]
  GI50: 269 nM
[8]
  inhibition: 51%
[9]
  IC50: 530 nM

## COc1cccc(-c2cc(O)c3cc4c(cc3n2)OCO4)c1
[8]
  inhibition: 39%
[9]
  IC50: 570 nM

## COc1cccc(-c2cc(O)c3cc(NC(C)=O)ccc3n2)c1
[5]
  GI50: 5500 nM
[9]
  IC50: 2100 nM

## CCOc1cccc(-c2cc(O)c3cc4c(cc3n2)OCO4)c1
[10]
  GI50: 251 nM
[1]
  GI50: 174 nM
[11]
  GI50: 182 nM
[2]
  GI50: 44.7 nM
[3]
  GI50: 324 nM
[4]
  GI50: 166 nM
[12]
  GI50: 275 nM
[5]
  GI50: 269 nM
[6]
  GI50: 64.6 nM
[7]
  GI50: 191 nM
[8]
  inhibition: 40%
[9]
  IC50: 470 nM
[13]
  GI50: 17.8 nM

## Nc1ccc2nc(-c3cccc(C(F)(F)F)c3)cc(O)c2c1
[10]
  GI50: 43700 nM
[1]
  GI50: 52500 nM
[11]
  GI50: 34700 nM
[9]
  IC50: > 40000 nM

## COc1cccc(-c2cc(O)c3cc(N4CCN(C)CC4)ccc3n2)c1
[10]
  GI50: 2510 nM
[1]
  GI50: 437 nM
[11]
  GI50: 1510 nM
[2]
  GI50: 537 nM
[3]
  GI50: 1510 nM
[14]
  GI50: > 10000 nM
[12]
  GI50: 457 nM
[5]
  GI50: 1860 nM
[6]
  GI50: 1820 nM
[7]
  GI50: 912 nM
[9]
  IC50: 14000 nM
[13]
  GI50: 200 nM

## CC(=O)Nc1ccc2nc(-c3cccc(Cl)c3)cc(O)c2c1
[14]
  GI50: > 100000 nM
[9]
  IC50: 2300 nM

## COc1cccc(-c2cc(O)c3cc(N(C)C)ccc3n2)c1
[10]
  GI50: 34.7 nM
[11]
  GI50: 4.57 nM
[2]
  GI50: 8.91 nM
[3]
  GI50: 44.7 nM
[14]
  GI50: 5500 nM
[4]
  GI50: 15.1 nM
[12]
  GI50: 18.6 nM
[5]
  GI50: 43.6 nM
[6]
  GI50: 15.5 nM
[7]
  GI50: 25.7 nM
[8]
  inhibition: 14%
[9]
  IC50: 380 nM
[13]
  GI50: 1.7 nM

## Nc1ccc2nc(-c3cccc(Cl)c3)cc(O)c2c1
[11]
  GI50: 3160 nM
[14]
  GI50: > 100000 nM
[9]
  IC50: 6100 nM

## COc1ccc(CCc2cc(OC)c(OC)c(OC)c2)cc1O
[9]
  IC50: 630 nM

## Oc1cccc(-c2cc(O)c3cc4c(cc3n2)OCO4)c1
[1]
  GI50: 1820 nM
[11]
  GI50: 3310 nM
[2]
  GI50: 724 nM
[5]
  GI50: 2290 nM
[6]
  GI50: 5500 nM
[7]
  GI50: 1480 nM
[8]
  inhibition: 26%
[9]
  IC50: 470 nM

## Nc1cccc(-c2cc(O)c3cc4c(cc3n2)OCO4)c1
[1]
  GI50: 479 nM
[11]
  GI50: 708 nM
[2]
  GI50: 891 nM
[3]
  GI50: 2190 nM
[14]
  GI50: 38900 nM
[12]
  GI50: 603 nM
[5]
  GI50: 759 nM
[6]
  GI50: 2400 nM
[7]
  GI50: 933 nM
[8]
  inhibition: 16%
[9]
  IC50: 730 nM

## COc1cccc(-c2cc(O)c3cc(Cl)ccc3n2)c1
[8]
  inhibition: 16%
[9]
  IC50: 700 nM

## Oc1cc(-c2cccc(C(F)(F)F)c2)nc2cc3c(cc12)OCO3
[11]
  GI50: 1380 nM
[8]
  inhibition: 5%
[9]
  IC50: 820 nM

## COc1cccc(-c2cc(O)c3cc(N4CCOCC4)ccc3n2)c1
[10]
  GI50: 43.6 nM
[1]
  GI50: 26.9 nM
[11]
  GI50: 33.9 nM
[2]
  GI50: 24.6 nM
[3]
  GI50: 33.9 nM
[14]
  GI50: 6310 nM
[4]
  GI50: 19.9 nM
[5]
  GI50: 53.7 nM
[6]
  GI50: 49 nM
[7]
  GI50: 35.5 nM
[8]
  inhibition: 43%
[9]
  IC50: 360 nM
[13]
  GI50: 8.32 nM

## Oc1cc(-c2cccc(OC(F)(F)F)c2)nc2cc3c(cc12)OCO3
[10]
  GI50: 45.7 nM
[1]
  GI50: 14.1 nM
[11]
  GI50: 36.3 nM
[2]
  GI50: 36.3 nM
[3]
  GI50: 195 nM
[14]
  GI50: 25.7 nM
[4]
  GI50: 63.1 nM
[12]
  GI50: 40.7 nM
[6]
  GI50: 25.7 nM
[7]
  GI50: 170 nM
[8]
  inhibition: 40%
[9]
  IC50: 500 nM
[13]
  GI50: < 10 nM

## CNc1cccc(-c2cc(O)c3cc4c(cc3n2)OCO4)c1
[1]
  GI50: 245 nM
[11]
  GI50: 331 nM
[2]
  GI50: 398 nM
[3]
  GI50: 537 nM
[4]
  GI50: 339 nM
[12]
  GI50: 363 nM
[5]
  GI50: 5500 nM
[6]
  GI50: 324 nM
[7]
  GI50: 447 nM
[8]
  inhibition: 17%
[9]
  IC50: 650 nM

## Oc1cc(-c2ccccc2)nc2cc3c(cc12)OCO3
[8]
  inhibition: 26%
[9]
  IC50: 630 nM

## Oc1cc(-c2cccc(Br)c2)nc2cc3c(cc12)OCO3
[1]
  GI50: 3390 nM
[11]
  GI50: 3090 nM
[2]
  GI50: 3470 nM
[3]
  GI50: 3800 nM
[14]
  GI50: > 100000 nM
[4]
  GI50: 4270 nM
[12]
  GI50: 2400 nM
[5]
  GI50: 3020 nM
[6]
  GI50: 331 nM
[7]
  GI50: 4370 nM
[8]
  inhibition: 26%
[9]
  IC50: 530 nM

## COc1cccc(-c2cc(O)c3cc(N)ccc3n2)c1
[11]
  GI50: 3470 nM
[9]
  IC50: 8700 nM

## Oc1cc(-c2cccc(Cl)c2)nc2cc3c(cc12)OCO3
[11]
  GI50: 269 nM
[14]
  GI50: > 75900 nM
[7]
  GI50: 209 nM
[8]
  inhibition: 45%
[9]
  IC50: 370 nM

## CC(=O)Nc1ccc2nc(-c3cccc(F)c3)cc(O)c2c1
[5]
  GI50: 25700 nM
[6]
  GI50: 38900 nM

## Oc1cc(-c2cccc(OC(F)(F)F)c2)nc2ccc(N3CCCC3)cc12
[8]
  inhibition: 58%
[9]
  IC50: 720 nM

## COc1cc([C@@H]2c3cc4c(cc3[C@H](O)[C@H]3COC(=O)[C@H]23)OCO4)cc(OC)c1OC
[8]
  inhibition: 84%

## COc1cccc(-c2cc(O)c3cc(N4CCCC4)ccc3n2)c1
[10]
  GI50: < 1 nM
[1]
  GI50: < 1 nM
[11]
  GI50: < 1 nM
[2]
  GI50: < 1 nM
[3]
  GI50: < 1 nM
[14]
  GI50: 2000 nM
[4]
  GI50: < 1 nM
[12]
  GI50: < 1 nM
[5]
  GI50: < 1 nM
[6]
  GI50: < 1 nM
[7]
  GI50: < 1 nM
[13]
  GI50: < 1 nM

## Oc1cc(-c2cccc(OCc3ccccc3)c2)nc2cc3c(cc12)OCO3
[10]
  GI50: 1100 nM
[1]
  GI50: 389 nM
[11]
  GI50: 224 nM
[2]
  GI50: 363 nM
[3]
  GI50: 229 nM
[4]
  GI50: 245 nM
[12]
  GI50: 407 nM
[5]
  GI50: 12900 nM
[6]
  GI50: 447 nM
[7]
  GI50: 282 nM
[8]
  inhibition: 26%
[9]
  IC50: 450 nM
[13]
  GI50: 145 nM

## CN(C)c1cccc(-c2cc(O)c3cc4c(cc3n2)OCO4)c1
[8]
  inhibition: 29%
[9]
  IC50: 700 nM
